Experiments:
AGS cells [1] = test system: AGS cells
Protocol: (§1) AGS cells were grown in RPMI medium containing 10% FBS and 1% PS. HEK293 and RAW264.7 cells were grown in DMEM medium containing 10% FBS and 1% PS under conditions of 37° C., 5% CO2 and 95% air.
(§2) In order to evaluate toxicity to each cell, the sample was incubated in each cell (1×10^5 cells/well) cultured in the above manner for 24 hours, and then cytotoxicity to each cell was examined by using the MTT assay.

[2] = set-up: species or system mice; conditions: mouse, in vivo
Protocol: Male nude mice (CAnN.Cg-Foxn1-nu, 4 weeks old, 20 g to 22 g) were purchased from OrientBio (Seongnam, Republic of Korea). The mice were placed in a chamber with conditions maintained at 23° C. and 50% humidity with a period of 12 hours of light and 12 hours of darkness. All animal experiments were conducted according to the National Institutes of Health's Laboratory Animal Care and Use Guidelines (NIH Publications No. 8023, revised 1996) and the Kyung Hee University's Animal Care and Use Guidelines ([…]-441, approval data: Sep. 28, 2021). […] The control group was administered with only 0.9% of general saline during this period. Body weights and tumor volumes of the mice were measured daily in all mice during the study period. All mice were euthanized after the end of the experiments. Blood, liver, spleen, kidney, and tumor tissues were extracted and weighed. In order to obtain the protein of tumor tissue, a portion of the tissue was processed with RIPA buffer containing a protease inhibitor cocktail. Then, the expression degree of a specific protein (determined by Western blot) was determined. […] Fuji Dri-Chem analyzer (3500, Fuji Photo Film Co., Osaka, Japan) was used to measure alanine aminotransferase (ALT), aspartate aminotransferase (AST), total bilirumin (T-Bili), total protein (TP), albumin (Alb), albumin/globulin (A/G) ratio, total cholesterol (T-Chol), total triglyceride (TG), glucose (GLU), and blood urea nitrogen (BUN) values.

HEK293 cells = format: cell-based, human
Protocol: as §1, §2

AGS cells [3] = test: Live/dead cell staining of AGS cells; format: cell-based, human; conditions: 24 hours
Protocol: Live/dead cells were stained using a live/dead cell staining kit (Thermo Fisher Scientific, Rockford, IL, USA). Specifically, apoptosis was induced by processing AGS cells (2×10^5 cells/well) as a sample for 24 hours. After staining the cells for 30 minutes using the staining kit, the cells were observed using a Leica DM IRB fluorescence microscope (Wetzlar, Germany). In addition, for the colony formation assay, AGS cells were cultured at a density of 500 cells/well and then processed with the sample. Then, the cells were stained with 0.5% crystal violet (Sigma-Aldrich, St. Louis, MO, USA) for 15 minutes […], and then the stained colonies were observed and quantified using ImageJ.

AGS cells [4] = test: Western blot analysis of AGS cells; format: cell-based, human
Protocol: Mitochondria of AGS cells were extracted using an extraction kit (Abcam, Cambridge, MA, USA). According to the instructions for using the kit, the AGS cells were washed with cold PBS and homogenized in a cold glass vortex mixer. For mitochondrial-rich supernatants, the homogenates were centrifuged at 1000 rpm for 10 minutes at 4° C. For whole protein extraction, AGS cells were processed with samples at various concentrations for 24 hours. The cells were dissolved using Pierce™ RIPA buffer (Thermo Fisher Scientific, Rockford, IL, USA) together with protease inhibitor cocktail (GenDEPOT, TX, USA). The cell-dissolved solution formed in the above manner was centrifuged at 12,000 rpm for 20 minutes. The protein was loaded into a 10% SDS-PAGE gel using a protein gel electrophoresis chamber system and transferred to a PVDF membrane (Thermo Fisher Scientific, Rockford, IL, USA). A PBST solution containing 5% skim milk was used to block the membrane at 25° C. for 1 hour. Then, the membrane was incubated overnight at 4° C. with primary antibodies. Finally, the membrane was incubated with the secondary antibodies at 25° C. for 1 hour, and a protein band was detected using West-Q Pico ECL Solution (GenDEPOT, TX, USA). The results were quantified using ImageJ software.

[5] = 8-paradol and CQ in combination, compared to 8-paradol solely

## CCCCCCCCCC(=O)CCc1ccc(O)c(OC)c1 [Purified Compound 3, 8-paradol]
AGS cells [1]
  cytotoxicity to AGS cells: killed in a concentration-dependent manner
AGS cells [1]; [5]
  cell viability: significantly improved
AGS cells [1]; read-out: IC50 on AGS cells, AGS cells, 24 hours, MTT assay
  IC50: 14.9 ± 1.65 µM
[2]
  harm to the liver: not harmful to the liver
  kidney damage: did not cause kidney damage
HEK293 cells
  cytotoxicity to normal cells HEK293: did not express significant cytotoxicity
AGS cells [3]
  cytotoxicity on AGS cells by cell morphology and live/dead cell staining: strong cytotoxicity
AGS cells [4]; [5]
  Bcl-2 expression: significantly increased
  expression degree of Bax, Cytochrome c and caspase-3/-9: significantly decreased
AGS cells [4]; 8-paradol combined with CQ 30 μM, compared to 8-paradol solely
  conversion to LC3b and degradation of p62: more strongly induces
AGS cells [4]; 8-paradol in combination with CQ, compared to 8-paradol solely
  expression of TOM20 and TIM23: increased
AGS cells [4]; AGS cells
  amount of Bax, Cytochrome C and Cleaved-caspase-3/-9: increased
  amount of Bcl-2: decreased
  expression of p62: degraded p62 in a dose-dependent manner
  protein expression of Pink1 and Parkin: significantly increased
AGS cells [4]; AGS cells, compared with control group
  protein expression of TOM20 and TIM23: decreased
AGS cells [4]; AGS cells, dose- and time-dependent
  conversion from LC3a to LC3b: promoted
AGS cells [4]; AGS cells, mitochondrial fraction
  Parkin concentration of the mitochondrial fraction: increased
